According to ChEMBL document CHEMBL5726339, “Ether compounds for treatment of complement mediated disorders” (2017):

Molecular target: Complement factor D (Homo sapiens, UniProt P00746)
Test: Enzyme Assay: Human factor D (purified from human serum, Complement Technology, Inc.) at 80 nM final concentration is incubated with test compound at various concentrations for 5 minutes at room temperature in 50 mM Tris, 1M NaCl, pH 7.5. A synthetic substrate Z-L-Lys-SBzl and DTNB (Ellman's reagent) are added to final concentrations of 100 µM each. The increase in color is recorded at OD405 nm in a microplate in kinetic mode over 30 minutes with 30 second time points in a […]. IC50 values are calculated by non-linear regression from the percentage of inhibition of complement factor D activity as a function of test compound concentration.

Sequence of Complement factor D (P00746 whole entry): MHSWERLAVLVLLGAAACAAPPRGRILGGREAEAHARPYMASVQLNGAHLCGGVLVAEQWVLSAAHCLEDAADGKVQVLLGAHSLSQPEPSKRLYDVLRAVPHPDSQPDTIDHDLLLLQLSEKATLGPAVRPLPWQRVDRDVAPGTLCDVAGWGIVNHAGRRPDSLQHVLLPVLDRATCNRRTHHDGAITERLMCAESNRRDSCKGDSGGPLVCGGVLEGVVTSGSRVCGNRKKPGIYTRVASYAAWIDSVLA

Row | Compound | IC50 [nM]
1 | CC(=O)c1cn(CC(=O)N2[C@@H]3C[C@@H]3C[C@H]2C(=O)Nc2cccc(-c3ccccc3Cl)c2F)c2ccc(Oc3ncc(Br)cn3)cc12 | < 1000
2 | CC(=O)c1cn(CC(=O)N2C[C@H](F)C[C@H]2C(=O)Nc2cccc(Br)n2)c2ccc(Oc3ncc(Br)cn3)cc12 | < 1000
